# Source: US5700906A, “Immunogenic peptide antigen corresponding to plasmodium vivax circumsporozoite protein” (New York University, priority 1987, dated 1997)
# Where two headings read alike, the source gives them in different places. Where no end group is shown, it is not given here.
# How the values were obtained:
# [1] = system: anti-P. falciparum antibody 2AlO; test: Inhibition of binding of anti-P. falciparum antibody 2A10 to (NANP)3
# Source text: (§1) Monoclonal-antibody 2F2 from Example 5 was serially diluted in PBS-BSA (indicated in FIG. 5 by black triangles); or in PBS-BSA containing 25 micrograins/ml of synthetic peptide (NANP)3 (indicated by open triangles); or in PBS-BSA containing 25 micrograms/ml of the synthetic peptide of Example 4, i.e. (DRADGQPAG)2 (indicated by black circles).
# (§2) An unrelated monoclonal-antibody 2AlO (anti-falciparum CS protein) was serially diluted in PBS-BSA (indicated by open squares). […] of each dilution were delivered to the bottom of microtiter plates which had previously been coated with a synthetic peptide (DRADGQPAG)2 saturated with 1% BSA. After 1 hour of incubation, the wells were washed with PBS-BSA in 50 microliters of ^125 I-labelled affinity-purified goat anti-mouse IgG (10^5 cpm; specific activity about 2×10^6 cpm/microgram). After an additional hour of incubation, the wells were washed with PBS-BSA and counted.
# In other similar experiments, the binding of the anti-P. falciparum antibody 2AlO to the corresponding epitope (NANP)3 was not inhibited by the synthetic peptide (DRADGQPAG)2.^1
# [2] = system: binding of monoclonal antibody 2F2 to immobilized P. vivax sporozoite extract; test: Inhibition of the binding of labelled monoclonal antibody 2F2 to immobilized P. vivax extracts; settings: at 0: 16,387 ± 1,085 cpm
# Description: 100,000 cpm of 2F2 antibody labelled by ^125 I having a specific activity of about 2×10^6 cpm/microgram was diluted in PBS containing 1% BSA. The buffer also contained varying amounts of the synthetic peptide. The mixture was added to microtiter wells coated with P. vivax sporozoite extract. After one hour incubation in room temperature, the wells were washed three times with PBS containing 1% BSA and counted in the gamma counter.
# monoclonal antibody 2F2 = test: Inhibition of 2F2 binding to immobilized (DRADGQPAG)2 by synthetic peptides; settings: competing peptide 25 micrograms/ml
# Source text: as §1, §2
# [3] = system: binding of a monoclonal antibody to extracts of sporozoites from a New Guinea vivax malaria; test: Competition of peptide with monoclonal antibody binding to New Guinea vivax sporozoite extracts; parameters: species or system P. vivax
# Source text: Thus, although the P. vivax CS gene was isolated from a Brazilian strain of P. vivax, the epitope deduced from the sequence of the cloned gene appears to be present in all P. vivax CS proteins so far studied. The characterization of this gene and its encoded amino acid sequence allows synthesis of large amounts of the repetitive epitope and other antigenically active regions of the P. vivax CS protein and development of a protective vaccine using peptides corresponding to such regions.
# [4] = system: binding of monoclonal antibody (2G3) to the CS protein of P. knowlesi; test: 12-MER inhibition of binding of monoclonal antibody 2G3 to the CS protein of P. knowlesi
# Source text: Wells of microtiter plates were coated with the monoclonal antibody 2G3 washed with Tween-20, saturated with BSA as described supra. In one series of tubes, the 12-MER was serially diluted in PBS-BSA-Tween 20. In a second series of tubes, an extract of P. knowlesi sporozoites (prepared as described by Cochrane et al., supra) was serially diluted in PBS-BSA-Tween20. Aliquots of each dilution of sporozoites were mixed with equal volumes of all dilutions of 12-MER. 30 μI of these mixtures were then added to the bottom of the 2G3-coated wells. As positive and negative controls, 30 μl aliquots of sporozoite dilutions mixed with PBS-BSA-Tween 20 were added to other wells which had been precoated with 2G3 or with a non-relevant monoclonal antibody. After overnight incubation in the refrigerator, the wells were washed and 50 μl ([…]) of ^125 I-labeled 2G3 diluted in PBS-BSA-Tween 20 were added. Following an additional incubation at room temperature for 1 hour, the wells were washed and counted in a gamma counter.
# monoclonal antibody 2G3 = test: Two-site immunoradiometric assay performed with monoclonal antibody 2G3 and synthetic peptides; assay type: binding
# Description: The two synthetic peptides described in Example 7 were used in these studies. One of them was composed of the 12 amino acid sequence. H2 N-GlnAIaGlnGlyAspGlyAlaAsnAlaGlyGlnPro-COOH (12-MER) and the other was a dimer of the same sequence (24-MER). […] The assay was performed as follows:
# Wells of microtiter plates (Falcon 3911) were incubated overnight at 4° C. with 50 μl of a 10 μg/ml solution in PBS of the monoclonal 2G3 anti-CS protein of P. knowlesi. The wells were washed with PBS and then incubated for 2 hours at room temperature, with PBS-Tween 20 (0.05% (w/v), and then for 3 additional hours with PBS-BSA (1% (w/v)). The synthetic peptides were diluted serially in PBS-BSA-Tween 20, and 30 μl aliquots of the dilutions were delivered to the bottom of individual wells. The plates were incubated overnight in the refrigerator, washed with PBS-BSA-Tween 20, and incubated with […] (10 ng) of ^125 I-labeled monoclonal antibody 2G3 diluted in PBS-BSA-Tween 20 (about 100,000 cpm). Controls consisted of plates coated with a non-relevant monoclonal antibody of the same isotype as 2G3.
# porcine elastase = test: Elastase treatment of CS protein, reactivity with monoclonal antibodies; assay type: biochemical
# Source text: (c) One possible reading frame coded for an alanine-rich peptide.
substance,measurement,setting,value
H-(Asp-Gly-Gln-Pro-Ala-Gly-Asp-Arg-Ala)2 [(DRADGQPAG)2],inhibition of binding of 2AlO to (NANP)3,[1],not inhibited
same,Bound 125I-labeled 2F2,[2]; synthetic peptide 0.2 micrograms/ml,"3,146 cpm"
same,Bound 125I-labeled 2F2,[2]; synthetic peptide 2 micrograms/ml,"2,130 cpm"
same,Bound 125I-labeled 2F2,[2]; synthetic peptide 20 micrograms/ml,"1,091 cpm"
same,Bound 125I-labeled 2F2,"[2]; synthetic peptide 200 micrograms/ml, mean of counts in four wells",842 cpm
same,inhibition of binding of 2F2 to immobilized (DRADGQPAG)2,monoclonal antibody 2F2,totally inhibited
same,competition with binding of monoclonal antibody to sporozoite extracts,[3],can compete
"QAQGDGANAGQP [12-MER, H2 N-GlnAIaGlnGlyAspGlyAlaAsnAlaGlyGlnPro-COOH]",inhibition of interaction of P. knowlesi CS protein with monoclonal antibody,[4],"inhibited, in a dose-dependent fashion"
same,Amount of 2G3 bound in the presence of 12-MER inhibitor,"[4]; 10^3 sporozoites/ml, 12-MER 0.08 mg/ml, 156 cpm at 0",72 cpm
same,Amount of 2G3 bound in the presence of 12-MER inhibitor,"[4]; 10^3 sporozoites/ml, 12-MER 0.6 mg/ml, 156 cpm at 0",0 cpm
same,Amount of 2G3 bound in the presence of 12-MER inhibitor,"[4]; 10^3 sporozoites/ml, 12-MER 5.0 mg/ml, 156 cpm at 0",37 cpm
same,Amount of 2G3 bound in the presence of 12-MER inhibitor,"[4]; 10^4 sporozoites/ml, 12-MER 0.08 mg/ml, 1353 cpm at 0",102 cpm
same,Amount of 2G3 bound in the presence of 12-MER inhibitor,"[4]; 10^4 sporozoites/ml, 12-MER 0.6 mg/ml, 1353 cpm at 0",70 cpm
same,Amount of 2G3 bound in the presence of 12-MER inhibitor,"[4]; 10^4 sporozoites/ml, 12-MER 5.0 mg/ml, 1353 cpm at 0",3 cpm
same,Amount of 2G3 bound in the presence of 12-MER inhibitor,"[4]; 10^5 sporozoites/ml, 12-MER 0.08 mg/ml, 4390 cpm at 0",1221 cpm
same,Amount of 2G3 bound in the presence of 12-MER inhibitor,"[4]; 10^5 sporozoites/ml, 12-MER 0.6 mg/ml, 4390 cpm at 0",781 cpm
same,Amount of 2G3 bound in the presence of 12-MER inhibitor,"[4]; 10^5 sporozoites/ml, 12-MER 5.0 mg/ml, 4390 cpm at 0",361 cpm
same,Amount of 2G3 bound in the presence of 12-MER inhibitor,"[4]; 10^6 sporozoites/ml, 12-MER 0.08 mg/ml, 5582 cpm at 0",3893 cpm
same,Amount of 2G3 bound in the presence of 12-MER inhibitor,"[4]; 10^6 sporozoites/ml, 12-MER 0.6 mg/ml, 5582 cpm at 0",3018 cpm
same,Amount of 2G3 bound in the presence of 12-MER inhibitor,"[4]; 10^6 sporozoites/ml, 12-MER 5.0 mg/ml, 5582 cpm at 0",1099 cpm
same,inhibition of interaction of P. knowlesi CS protein with monoclonal antibody,[4]; listed as monomer,compete with and specifically inhibit
same,two-site radioimmunoassay reactivity,monoclonal antibody 2G3; monoclonal antibody to P. knowlesi CS protein,did not bind
same,Amount of radiolabeled 2G3 bound,monoclonal antibody 2G3; peptide 5 ug/ml,40 cpm
same,Amount of radiolabeled 2G3 bound,monoclonal antibody 2G3; peptide 50 ug/ml,103 cpm
same,Amount of radiolabeled 2G3 bound,monoclonal antibody 2G3; peptide 500 ug/ml,157 cpm
same,Amount of radiolabeled 2G3 bound,monoclonal antibody 2G3; peptide .5 ug/ml,0 cpm
OOC-Ala Ala Pro Ala,inactivation of CS protein by elastase in presence of inhibitor,porcine elastase,reversed
